From ChEMBL document CHEMBL4145658, “Modulators of the Cystic Fibrosis Transmembrane Conductance Regulator Protein” (ACS Med Chem Lett, 2018) come the findings set out here.

What all share (type): cell-based
Experiment [1] deals with T1, Cystic fibrosis transmembrane conductance regulator (Homo sapiens, UniProt P13569, F508DEL). In words: Corrector activity at HRP-fused CFTR F508del mutant (unknown origin) expressed in human CFBE41o cells assessed as increase in matured protein levels at cell surface after 18 to 24 hrs by luminescence assay.
T1 sequence (P13569 as listed by the source): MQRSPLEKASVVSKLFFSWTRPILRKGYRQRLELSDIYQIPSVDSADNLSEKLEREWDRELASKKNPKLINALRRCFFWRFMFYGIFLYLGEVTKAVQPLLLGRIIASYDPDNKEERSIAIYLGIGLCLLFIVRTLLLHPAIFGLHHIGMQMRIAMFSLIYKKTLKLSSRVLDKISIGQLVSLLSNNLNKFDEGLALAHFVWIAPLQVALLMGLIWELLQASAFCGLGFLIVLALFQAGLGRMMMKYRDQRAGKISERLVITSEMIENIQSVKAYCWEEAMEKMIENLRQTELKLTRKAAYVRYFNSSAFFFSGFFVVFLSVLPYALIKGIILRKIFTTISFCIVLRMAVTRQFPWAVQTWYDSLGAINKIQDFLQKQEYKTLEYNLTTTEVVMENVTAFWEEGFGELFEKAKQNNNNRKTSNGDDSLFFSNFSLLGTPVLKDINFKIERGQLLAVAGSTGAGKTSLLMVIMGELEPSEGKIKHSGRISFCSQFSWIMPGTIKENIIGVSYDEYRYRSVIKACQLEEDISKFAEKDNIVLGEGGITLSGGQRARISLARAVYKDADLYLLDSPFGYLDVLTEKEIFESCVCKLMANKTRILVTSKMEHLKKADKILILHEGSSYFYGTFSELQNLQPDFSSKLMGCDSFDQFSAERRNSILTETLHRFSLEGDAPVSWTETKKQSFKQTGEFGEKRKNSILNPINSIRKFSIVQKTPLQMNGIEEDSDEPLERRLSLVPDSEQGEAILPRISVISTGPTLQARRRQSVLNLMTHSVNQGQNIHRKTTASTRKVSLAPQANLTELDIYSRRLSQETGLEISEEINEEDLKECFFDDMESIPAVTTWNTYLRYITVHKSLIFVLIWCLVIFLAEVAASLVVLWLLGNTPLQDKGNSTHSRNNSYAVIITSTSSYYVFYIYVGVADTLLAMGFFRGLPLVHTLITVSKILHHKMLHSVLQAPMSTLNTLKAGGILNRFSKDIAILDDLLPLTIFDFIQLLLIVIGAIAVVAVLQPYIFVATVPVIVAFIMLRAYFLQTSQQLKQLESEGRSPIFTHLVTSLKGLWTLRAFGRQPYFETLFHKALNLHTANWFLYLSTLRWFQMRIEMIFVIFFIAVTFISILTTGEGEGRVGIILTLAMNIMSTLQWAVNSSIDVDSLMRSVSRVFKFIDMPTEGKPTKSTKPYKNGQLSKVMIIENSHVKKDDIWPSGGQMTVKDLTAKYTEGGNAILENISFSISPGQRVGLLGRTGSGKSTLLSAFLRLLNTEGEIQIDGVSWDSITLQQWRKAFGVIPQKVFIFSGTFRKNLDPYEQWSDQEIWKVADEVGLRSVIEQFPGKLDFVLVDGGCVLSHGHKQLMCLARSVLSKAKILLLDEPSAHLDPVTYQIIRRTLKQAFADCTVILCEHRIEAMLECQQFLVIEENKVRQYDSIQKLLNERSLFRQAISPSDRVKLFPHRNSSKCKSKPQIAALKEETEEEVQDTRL
Experiment [2] has as its system Cystic fibrosis transmembrane conductance regulator (Homo sapiens), P13569 [F508del]. The experiment can be described thus: Corrector activity at HRP-fused CFTR F508del mutant (unknown origin) expressed in human CFBE41o cells assessed as increase in matured protein levels at cell surface at 20 uM after 18 to 24 hrs by luminescence assay relative to 3-[(2R,4R)-4-({[l-(2,2-difluoro-l,3-benzodioxol-5-yl)cyclopropyl]carbonyl}amino)-7-methoxy-3,4-dihydro-2H-chromen-2-yl]benzoic acid.

For experiment [3], the target named is T1, Cystic fibrosis transmembrane conductance regulator. In words: Corrector activity at HRP-fused CFTR F508del mutant (unknown origin) expressed in human CFBE41o cells assessed as increase in matured protein levels at cell surface after 18 to 24 hrs in presence of co-corrector 3-[(2R,4R)-4-({[l-(2,2-difluoro-l,3-benzodioxol-5-yl)cyclopropyl]carbonyl}amino)-7-methoxy-3,4-dihydro-2H-chromen-2-yl]benzoic acid by luminescence assay.

In experiment [4] the test system is Cystic fibrosis transmembrane conductance regulator (Homo sapiens), P13569 [F508del]. In words: Corrector activity at HRP-fused CFTR F508del mutant (unknown origin) expressed in human CFBE41o cells assessed as increase in matured protein levels at cell surface at 20 uM after 18 to 24 hrs in presence of co-corrector 3-[(2R,4R)-4-({[l-(2,2-difluoro-l,3-benzodioxol-5-yl)cyclopropyl]carbonyl}amino)-7-methoxy-3,4-dihydro-2H-chromen-2-yl]benzoic acid by luminescence assay relative to co-corrector.
Sequence of Cystic fibrosis transmembrane conductance regulator (Homo sapiens), P13569 [F508del] (P13569 as listed by the source): as above

Bounds are passed on as bounds.

Consider `COc1ccc(C(C)(C)C)cc1CN[C@H]1[C@H](C(C)(C)C)[C@@H](C(=O)O)N(C(=O)[C@@H]2Cc3ccccc3O2)[C@H]1c1ccccc1`, for which the EC50 in experiment [1] and in experiment [3] was less than 1000 nM in each case. The results for the %max in experiment [2] and in experiment [4] were more than 200% and more than 350%, respectively.

Consider `COc1ccc(C(C)(C)C)cc1CN[C@H]1[C@H](C(C)(C)C)[C@@H](C(=O)O)N(C(=O)C2CCCCC2)[C@H]1c1cccnc1N(C)C`, for which the EC50 in experiment [1] and in experiment [3] was less than 1000 nM throughout. Besides, the %max is more than 200% in experiment [2] and more than 350% in experiment [4].

With `COc1ccc([Si](C)(C)C)cc1CN[C@H]1[C@H](C(C)(C)C)[C@@H](C(=O)O)N(C(=O)C2CCCCC2)[C@H]1c1ccccc1`, the EC50 in experiment [1] and in experiment [3] was less than 1000 nM in each case. Besides, the %max in experiment [2] is more than 200%; in experiment [4] it was more than 350%.

Regarding `COc1cc2c(cc1CN[C@H]1[C@H](C(C)(C)C)[C@@H](C(=O)O)N(C(=O)C3CCCCC3)[C@H]1c1ccccc1)C(C)(C)CCC2(C)C`, the EC50 in experiment [1] and in experiment [3] was less than 1000 nM throughout. Besides, the %max was 100 to 200% in experiment [2] and more than 350% in experiment [4].

As for `COc1ncc(C2CCC2)cc1CN[C@H]1[C@H](C(C)(C)C)[C@@H](C(=O)O)N(C(=O)C2CCCCC2)[C@H]1c1ccccc1C`, the EC50 in experiment [1] and in experiment [3] was less than 1000 nM throughout. The figures for the %max in experiment [2] and in experiment [4] were more than 200% and more than 350%, respectively.

Turning to `COc1ccc(-c2cccc(F)c2F)cc1CN[C@H]1[C@H](C(C)(C)C)[C@@H](C(=O)O)N(C(=O)C2CCCCC2)[C@H]1c1ccccc1`, the EC50 in experiment [1] and in experiment [3] was less than 1000 nM each time. The results for the %max in experiment [2] and in experiment [4] were more than 200% and more than 350%, respectively.

`COc1ncc(C(C)C)cc1CN[C@H]1[C@H](C(C)(C)OC)[C@@H](C(=O)O)N(C(=O)C2CCCCC2)[C@H]1c1ccccc1`: the EC50 in experiment [1] and in experiment [3] was 1000 to 10000 nM throughout. For the same compound, the %max is more than 200% in experiment [2] and more than 350% in experiment [4].

With `CC(C)c1ccccc1[C@H]1[C@@H](NCc2cccc3c2OC(C)(C)C3)[C@H](C(C)(C)C)[C@@H](C(=O)O)N1C(=O)[C@@H]1CCCCO1`, the EC50 in experiment [1] and in experiment [3] was less than 1000 nM throughout. For the same compound, the results for the %max in experiment [2] and in experiment [4] were more than 200% and more than 350%, respectively.

`COc1ccc(C2(C)CCC2)cc1CN[C@H]1[C@H](C(C)(C)C)[C@@H](C(=O)O)N(C(=O)[C@@H]2CCCCO2)[C@H]1c1ccccc1C`: the EC50 in experiment [1] and in experiment [3] was less than 1000 nM each time. Further, the %max in experiment [2] was more than 200%; in experiment [4], more than 350%.

By EC50 is commonly meant the midpoint of the concentration-response curve.
